Experimental data: patent US8946431B2, “2-(substituted ethynyl)quinoline derivatives as mGLUr5 antagonists” (Korea Institute of Science and Technology, priority 2013, dated 2015)

Tests used:
mGluR5 [1] = biological target: T1, mGluR5 (Homo sapiens, UniProt P41594); assay: Assay for m-GluR5 activity using FDSS6000 (calcium mobilization by L-glutamate in mGluR5/HEK293 cells); assay type: cell-based; settings: L-glutamate 10 uM, HEK cells expressing m-GluR5; for inhibition at 1 µM / inhibition at 10 µM: HEK293, read-out: % Inhibition rate (mGluR5)
T1 construct: host or cells: HEK293 (human embryonic kidney) cells stably expressing m-GluR5
T1 sequence (P41594 21-1212): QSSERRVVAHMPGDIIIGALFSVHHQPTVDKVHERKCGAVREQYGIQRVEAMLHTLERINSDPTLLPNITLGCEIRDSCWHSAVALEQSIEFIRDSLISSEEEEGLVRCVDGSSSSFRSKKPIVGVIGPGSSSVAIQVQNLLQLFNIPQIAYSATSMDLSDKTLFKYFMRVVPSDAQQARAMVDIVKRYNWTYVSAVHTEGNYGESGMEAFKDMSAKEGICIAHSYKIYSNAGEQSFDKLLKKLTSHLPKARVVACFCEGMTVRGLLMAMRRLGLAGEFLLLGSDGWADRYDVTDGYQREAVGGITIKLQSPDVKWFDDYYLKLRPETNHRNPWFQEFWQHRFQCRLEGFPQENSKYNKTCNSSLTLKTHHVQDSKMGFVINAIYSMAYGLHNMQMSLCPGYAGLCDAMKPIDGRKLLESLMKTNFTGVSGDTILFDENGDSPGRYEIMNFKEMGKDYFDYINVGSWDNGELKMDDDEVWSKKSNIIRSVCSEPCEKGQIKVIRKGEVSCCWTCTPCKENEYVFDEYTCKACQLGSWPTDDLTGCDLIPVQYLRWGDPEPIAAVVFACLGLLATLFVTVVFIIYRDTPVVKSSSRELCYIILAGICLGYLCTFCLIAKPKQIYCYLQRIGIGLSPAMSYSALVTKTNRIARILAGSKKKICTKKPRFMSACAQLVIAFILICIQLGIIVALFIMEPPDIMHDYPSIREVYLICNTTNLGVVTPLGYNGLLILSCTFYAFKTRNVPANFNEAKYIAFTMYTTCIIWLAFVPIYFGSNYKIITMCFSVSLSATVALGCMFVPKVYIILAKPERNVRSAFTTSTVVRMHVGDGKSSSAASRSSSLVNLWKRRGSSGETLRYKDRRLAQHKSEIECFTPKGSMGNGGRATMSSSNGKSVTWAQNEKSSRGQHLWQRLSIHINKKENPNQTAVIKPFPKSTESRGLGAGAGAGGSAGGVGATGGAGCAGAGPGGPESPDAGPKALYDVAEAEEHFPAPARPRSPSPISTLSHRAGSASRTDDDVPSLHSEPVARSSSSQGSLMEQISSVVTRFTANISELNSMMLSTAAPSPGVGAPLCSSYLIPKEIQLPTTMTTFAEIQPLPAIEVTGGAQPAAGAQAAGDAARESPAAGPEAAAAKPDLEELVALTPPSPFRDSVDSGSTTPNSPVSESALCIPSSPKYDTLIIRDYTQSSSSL
Protocol: Inhibitory activity (%) of the compound represented by Formula 1 on calcium mobilization developed at a high concentration of glutamate in mGluR5/HEK293 cells was measured by using a high throughput FDSS6000.
After HEK cells stably expressing m-GluR5 (Human embryonic kidney cell line; m-GluR5: Yonsei University) were prepared at a density of 4×10^4/Ml per well, aliquots of 100 μl from the cell suspension were distributed evenly into a 96-well plate and incubated for 18 hr at 37° C., 5% CO2. The well plate was washed with a HBSS buffer to remove the culture medium, and reacted with a HBSS buffer containing a Ca^2+ fluorescent dye (FLIPR Calcium 5 assay kit: Molecular Devices) for 30 min at 37° C., 5% CO2, thereby labeling with the fluorescent dye. Separately from the 96-well plate including the cells, another 96-well plate including L-glutamate (final concentration: 10 uM) capable of activating m-GluR5 and a blacking agent was prepared. Since most of cell-based HTS devices are equipped with a liquid application system for injection of a drug, but have no liquid sucking system, the blocking agent to be tested and L-glutamate were respectively provided at a 6-fold higher concentration in a HBSS buffer at the amount of 25 μl, diluted by six-times at the final cell plate volume of 150 μl, and then used in this assay. Briefly, the FDSS6000 assay was carried out by recording a reference level of 20 sec, pre-treating with a blocking agent for 75 sec, and then measuring the change in intracellular calcium level depending on the administration of L-glutamate. After the area of a 480/520 ratio value in a control without treatment of a test drug was set to 100%, an inhibitory effect of the test drug was calculated as a percentage (%) thereon.
For accurate calcium imaging, the light source of 4 xenon lamps in FDSS6000 were radiated to selectively expose the cells to the excitation wavelength (480 nm) by a computer-controlled filter wheel. Data were obtained at intervals of 1.23 sec. The emitter fluorescence light inflowed through a 520 nm long-pass filter was obtained as an average 480/520 ratio value for each well in the 96-wells by using a CCD camera and a digital fluorescence analyzer in FDSS6000. All image data and analyses were obtained by using a FDSS6000-exclusive program from Hamamatsu Photonics.

CYP2C9 = CYP2C9 (Homo sapiens, UniProt P11712); assay: CYP inhibitory rate, CYP2C9; assay type: in vitro ADME
Sequence of CYP2C9 (P11712 whole entry): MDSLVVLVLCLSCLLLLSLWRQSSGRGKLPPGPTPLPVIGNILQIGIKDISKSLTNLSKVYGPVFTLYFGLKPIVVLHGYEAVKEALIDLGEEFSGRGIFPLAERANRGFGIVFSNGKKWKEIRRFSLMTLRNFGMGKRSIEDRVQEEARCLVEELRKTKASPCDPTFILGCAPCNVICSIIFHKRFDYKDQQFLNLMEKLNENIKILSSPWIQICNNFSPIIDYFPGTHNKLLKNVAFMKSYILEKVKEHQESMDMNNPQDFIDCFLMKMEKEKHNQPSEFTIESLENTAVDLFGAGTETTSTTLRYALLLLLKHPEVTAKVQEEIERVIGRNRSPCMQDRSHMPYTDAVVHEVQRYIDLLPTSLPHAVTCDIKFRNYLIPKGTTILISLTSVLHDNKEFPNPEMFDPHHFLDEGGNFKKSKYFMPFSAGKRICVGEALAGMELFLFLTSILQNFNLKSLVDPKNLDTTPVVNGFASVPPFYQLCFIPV

[2] = HLM (human liver microsomal) stability; assay type: in vitro ADME; settings: human liver microsomes
CYP3A4 = CYP3A4 (Homo sapiens, UniProt P08684); assay: CYP inhibitory rate, CYP3A4; assay type: in vitro ADME
Sequence of CYP3A4 (P08684 whole entry): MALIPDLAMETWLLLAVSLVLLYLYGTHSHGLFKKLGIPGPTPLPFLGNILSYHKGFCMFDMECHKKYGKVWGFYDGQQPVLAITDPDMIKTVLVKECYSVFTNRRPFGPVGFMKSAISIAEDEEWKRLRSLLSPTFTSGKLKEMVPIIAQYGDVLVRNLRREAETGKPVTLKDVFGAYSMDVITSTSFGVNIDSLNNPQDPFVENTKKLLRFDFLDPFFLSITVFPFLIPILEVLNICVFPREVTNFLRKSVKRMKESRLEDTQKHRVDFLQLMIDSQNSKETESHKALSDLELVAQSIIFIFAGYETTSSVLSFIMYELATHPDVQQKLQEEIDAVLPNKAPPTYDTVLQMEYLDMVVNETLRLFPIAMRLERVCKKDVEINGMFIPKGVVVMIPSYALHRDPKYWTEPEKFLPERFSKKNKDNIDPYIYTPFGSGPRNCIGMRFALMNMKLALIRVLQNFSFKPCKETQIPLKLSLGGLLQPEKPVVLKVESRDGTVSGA

CYP2D6 = CYP2D6 (Homo sapiens, UniProt P10635); assay: CYP inhibitory rate, CYP2D6; assay type: in vitro ADME
Sequence of CYP2D6 (P10635 whole entry): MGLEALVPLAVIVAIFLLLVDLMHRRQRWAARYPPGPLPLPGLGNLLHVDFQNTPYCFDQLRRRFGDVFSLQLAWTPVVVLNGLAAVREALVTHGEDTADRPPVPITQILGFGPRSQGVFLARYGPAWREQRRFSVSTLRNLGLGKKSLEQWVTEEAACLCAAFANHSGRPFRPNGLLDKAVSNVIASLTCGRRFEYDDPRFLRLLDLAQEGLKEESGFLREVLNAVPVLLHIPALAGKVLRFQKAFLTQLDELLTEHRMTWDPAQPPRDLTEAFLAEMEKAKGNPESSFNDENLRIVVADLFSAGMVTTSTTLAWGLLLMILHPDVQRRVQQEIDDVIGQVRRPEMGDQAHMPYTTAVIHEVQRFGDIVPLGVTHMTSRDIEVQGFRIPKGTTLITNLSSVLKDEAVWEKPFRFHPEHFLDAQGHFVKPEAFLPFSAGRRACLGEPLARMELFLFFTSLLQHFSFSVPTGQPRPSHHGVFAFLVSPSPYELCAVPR

hERG = hERG (Homo sapiens, UniProt Q12809); assay: Inhibitory concentration (IC50) on hERG
Sequence of hERG (Q12809 whole entry): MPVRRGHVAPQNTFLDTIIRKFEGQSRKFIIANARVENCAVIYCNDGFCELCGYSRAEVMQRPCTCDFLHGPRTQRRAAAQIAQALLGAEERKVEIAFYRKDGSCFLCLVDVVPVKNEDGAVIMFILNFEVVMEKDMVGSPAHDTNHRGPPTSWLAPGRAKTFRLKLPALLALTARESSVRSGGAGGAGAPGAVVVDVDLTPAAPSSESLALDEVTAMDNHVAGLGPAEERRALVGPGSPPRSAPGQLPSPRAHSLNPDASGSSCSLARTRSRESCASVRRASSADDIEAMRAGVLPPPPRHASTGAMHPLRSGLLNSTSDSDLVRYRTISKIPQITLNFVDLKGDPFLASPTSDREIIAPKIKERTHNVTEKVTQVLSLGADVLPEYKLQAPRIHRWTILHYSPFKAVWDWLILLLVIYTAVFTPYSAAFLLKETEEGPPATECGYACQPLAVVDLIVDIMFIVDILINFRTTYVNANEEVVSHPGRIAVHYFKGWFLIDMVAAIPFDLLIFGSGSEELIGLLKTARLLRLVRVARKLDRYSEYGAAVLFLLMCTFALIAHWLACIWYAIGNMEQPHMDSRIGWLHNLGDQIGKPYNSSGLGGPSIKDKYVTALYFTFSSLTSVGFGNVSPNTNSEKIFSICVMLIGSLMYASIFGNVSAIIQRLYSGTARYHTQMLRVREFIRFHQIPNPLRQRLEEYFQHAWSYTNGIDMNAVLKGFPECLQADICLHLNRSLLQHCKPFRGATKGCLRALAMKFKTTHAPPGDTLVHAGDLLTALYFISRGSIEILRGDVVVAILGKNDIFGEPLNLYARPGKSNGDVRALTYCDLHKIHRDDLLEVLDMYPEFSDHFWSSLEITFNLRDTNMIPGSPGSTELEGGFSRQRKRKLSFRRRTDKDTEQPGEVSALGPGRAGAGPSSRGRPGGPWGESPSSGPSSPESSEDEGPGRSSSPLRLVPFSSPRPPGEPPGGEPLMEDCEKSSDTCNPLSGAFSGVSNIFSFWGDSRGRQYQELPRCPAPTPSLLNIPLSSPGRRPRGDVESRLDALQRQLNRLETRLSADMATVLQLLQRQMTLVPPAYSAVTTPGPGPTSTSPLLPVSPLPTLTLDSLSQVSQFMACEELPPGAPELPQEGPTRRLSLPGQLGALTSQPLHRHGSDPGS

mGluR5 [3] = biological target: T1, mGluR5; assay: Inhibitory concentration (IC50) on mGluR5; assay type: cell-based

Row | Compound | inhibition at 1 µM (mGluR5 [1]; 1 μM compound) | inhibition at 10 µM (mGluR5 [1]; 10 μM compound) | other results
1 | C(#Cc1ccc2ccccc2n1)c1ccccc1 [Example 11, 2-(Phenylethynyl)quinoline] | 35.9% | 67.7% | –
2 | Clc1cccc2nc(C#Cc3ccccn3)ccc12 [Example 12, 5-Chloro-2-(pyridine-2-ylethynyl)quinoline] | 31% | 64.3% | –
3 | FC(F)(F)c1cccnc1C#Cc1ccc2ccccc2n1 [Example 13, 2-((3-(Trifluoromethyl)pyridine-2-yl)ethynyl)quinoline] | 9.49% | 16.4% | –
4 | COc1cccc2nc(C#Cc3ccccc3)ccc12 [Example 14, 5-Methoxy-2-(phenylethynyl)quinoline] | 63.6% | 68% | CYP (% remaining @ 10 μM) CYP2C9 (CYP2C9): 55%; HLM % remaining after 30 min [2]: <1%; CYP (% remaining @ 10 μM) CYP3A4 (CYP3A4): 50%; CYP (% remaining @ 10 μM) CYP2D6 (CYP2D6): >99%
5 | CC(C)(C)C(=O)Oc1cccc2nc(C#Cc3ccccc3)ccc12 [Example 15, 2-(Phenylethynyl)quinoline-5-ylpivalate] | – | – | % Inhibition rate (mGluR5) (mGluR5 [1]; 1 μM compound): 24.03%; % Inhibition rate (mGluR5) (mGluR5 [1]; 10 μM compound): 23.77%
6 | Oc1cccc2nc(C#Cc3ccccc3)ccc12 [Example 16, 2-(Phenylethynyl)quinoline-5-ol] | 18% | 24.3% | –
7 | Clc1cccc2nc(C#Cc3ccccc3)ccc12 [Example 17, 5-Chloro-2-(phenylethynyl)quinoline] | 11.7% | 8.02% | –
8 | Brc1cccc2nc(C#Cc3ccccc3)ccc12 [Example 18, 5-Bromo-2-(phenylethynyl)quinoline] | 21.1% | 20.7% | –
9 | C(#Cc1ccc2ccccc2n1)c1cccnc1 [Example 19, 2-(Pyridine-3-ylethynyl)quinoline] | 43.9% | 65.8% | –
10 | COc1cccc2nc(C#Cc3cccnc3)ccc12 [Example 20, 5-Methoxy-2-(pyridine-3-ylethynyl)quinoline] | 67.7% | 67.7% | –
11 | CCOc1cccc2nc(C#Cc3cccnc3)ccc12 [Example 21, 5-Ethoxy-2-(pyridine-3-ylethynyl)quinoline] | 47.2% | 66.6% | –
12 | CC(C)(C)C(=O)Oc1cccc2nc(C#Cc3cccnc3)ccc12 [Example 22, 2-(Pyridine-3-ylethynyl)quinoline-5-ylpivalate] | – | – | % Inhibition rate (mGluR5) (mGluR5 [1]; 1 μM compound): 10.56%; % Inhibition rate (mGluR5) (mGluR5 [1]; 10 μM compound): 28.5%
13 | Oc1cccc2nc(C#Cc3cccnc3)ccc12 [Example 23, 2-(Pyridine-3-ylethynyl)quinoline-5-ol] | 25.2% | 17.6% | –
14 | Clc1cccc2nc(C#Cc3cccnc3)ccc12 [Example 24, 5-Chloro-2-(pyridine-3-ylethynyl)quinoline] | 11.2% | 28.4% | –
15 | Brc1cccc2nc(C#Cc3cccnc3)ccc12 [Example 25, 5-Bromo-2-(pyridine-3-ylethynyl)quinoline] | 22% | 40.1% | –
16 | CC(C)(C)C(=O)Oc1cccc2nc(C#Cc3ccccn3)ccc12 [Example 27, 2-(Pyridine-2-ylethynyl)quinoline-5-ylpivalate] | – | – | % Inhibition rate (mGluR5) (mGluR5 [1]; 1 μM compound): 17.12%; % Inhibition rate (mGluR5) (mGluR5 [1]; 10 μM compound): 62.44%
17 | Oc1cccc2nc(C#Cc3ccccn3)ccc12 [Example 28, 2-(Pyridine-2-ylethynyl)quinoline-5-ol] | 17.4% | 22.1% | –

Row | Compound | inhibition at 1 µM (mGluR5 [1]; 1 μM compound) | inhibition at 10 µM (mGluR5 [1]; 10 μM compound) | other results
18 | Brc1cccc2nc(C#Cc3ccccn3)ccc12 [Example 29, 5-Bromo-2-(pyridine-2-ylethynyl)quinoline] | 56.7% | 77.5% | –
19 | Fc1cccnc1C#Cc1ccc2ccccc2n1 [Example 30, 2-((3-Fluoropyridine-2-yl)ethynyl)quinoline] | 31.3% | 55.2% | –
20 | Cc1cccnc1C#Cc1ccc2ccccc2n1 [Example 31, 2-((3-Methylpyridine-2-yl)ethynyl)quinoline] | 18.9% | 40.1% | –
21 | FC(F)(F)c1ccnc(C#Cc2ccc3ccccc3n2)c1 [Example 32, 2-((4-(Trifluoromethyl)pyridine-2-yl)ethynyl)quinoline] | 23.3% | 58% | –
22 | N#Cc1ccnc(C#Cc2ccc3ccccc3n2)c1 [Example 33, 2-(Quinoline-2-ylethynyl)isonicotinonitrile] | 35.2% | 76.1% | –
23 | Cc1ccnc(C#Cc2ccc3ccccc3n2)c1 [Example 34, 2-((4-Methylpyridine-2-yl)ethynyl)quinoline] | 21.9% | 66.5% | –
24 | FC(F)(F)c1ccc(C#Cc2ccc3ccccc3n2)nc1 [Example 35, 2-((5-(Trifluoromethyl)pyridine-2-yl)ethynyl)quinoline] | 13% | 50.7% | –
25 | Fc1ccc(C#Cc2ccc3ccccc3n2)nc1 [Example 36, 2-((5-Fluoropyridine-2-yl)ethynyl)quinoline] | 33.9% | 63.3% | –
26 | Cc1ccc(C#Cc2ccc3ccccc3n2)nc1 [Example 37, 2-((5-Methylpyridine-2-yl)ethynyl)quinoline] | 29% | 66.3% | –
27 | FC(F)(F)c1cccc(C#Cc2ccc3ccccc3n2)n1 [Example 38, 2-((6-(Trifluoromethyl)pyridine-2-yl)ethynyl)quinoline] | 15.8% | 28.7% | –
28 | N#Cc1cccc(C#Cc2ccc3ccccc3n2)n1 [Example 39, 6-(Quinoline-2-ylethynyl)picolinonitrile] | 33% | 64.8% | CYP (% remaining @ 10 μM) CYP2C9 (CYP2C9): 52%; HLM % remaining after 30 min [2]: 98%; CYP (% remaining @ 10 μM) CYP3A4 (CYP3A4): 56%; IC50 (hERG): 22.7 ± 7.04 µM; IC50 (mGluR5 [3]): 750 ± 170 nM; CYP (% remaining @ 10 μM) CYP2D6 (CYP2D6): 78%
29 | Fc1cccc(C#Cc2ccc3ccccc3n2)n1 [Example 40, 2-((6-Fluoropyridine-2-yl)ethynyl)quinoline] | 29.6% | 46.9% | –
30 | COc1cccc(C#Cc2ccc3ccccc3n2)n1 [Example 41, 2-((6-Methoxypyridine-2-yl)ethynyl)quinoline] | 16.6% | 48.6% | –
31 | C(#Cc1ncccn1)c1ccc2ccccc2n1 [Example 42, 2-(Pyrimidine-2-ylethynyl)quinoline] | 17.1% | 28.6% | –
32 | FC(F)(F)c1ccnc(C#Cc2ccc3ccccc3n2)n1 [Example 43, 2-((4-(Trifluoromethyl)pyrimidine-2-yl)ethynyl)quinoline] | 17.3% | 15.9% | –
33 | Fc1cnc(C#Cc2ccc3ccccc3n2)nc1 [Example 44, 2-((5-Fluoropyrimidine-2-yl)ethynyl)quinoline] | 16% | 15.6% | –
34 | C(#Cc1ccc2ccccc2n1)c1cncnc1 [Example 45, 2-(Pyrimidine-5-ylethynyl)quinoline] | 13.6% | 22.4% | –
